The text below walks through data of article PMC8567874, “Metronomic delivery of orally available pemetrexed-incorporated colloidal dispersions for boosting tumor-specific immunity” (Drug Delivery, 2021).

This data set is described as follows: In situ single-pass rat intestinal perfusion. Type of data set: in vivo. The conditions noted are these: other: in situ single-pass intestinal perfusion, rat intestine, n = 4, read-out: Effective permeability (Peff). The method, then: The in situ single-pass intestinal effective permeabilities (Peff) of PMX, PMX/DL(1:1), PMX/DL(1:2), PMX/DL(1:1)-CD, and PMX/DL(1:2)-CD were investigated in rats. The rats were fasted overnight for 12–16 h with free access to water before the experiment and then anesthetized by intramuscular injection of tiletamine·HCl–zolazepam mixture (1:1 [w/w]; 40 mg/kg). With the animal in the supine position, the abdominal cavity was opened using a midline longitudinal incision, and the intestine (duodenum, jejunum, and ileum) was exposed and subsequently intubated at the two ends with a polypropylene perfusion tube connected to a peristaltic pump (Harvard Apparatus, Holliston, MA, USA). After covering the entire excised area with a cotton pad soaked with warm normal saline, the cannulated intestinal segments were flushed with blank perfusion buffer at 37 °C for 30 min, at a constant flow rate of 0.5 mL/min, to remove residual intestinal contents. Then, drug solutions of PMX, PMX/DL(1:1), PMX/DL(1:2), PMX/DL(1:1)-CD, or PMX/DL(1:2)-CD (equivalent to 100 μg/mL PMX) were perfused through the intestinal lumen at 37 °C and a constant flow rate of 0.2 mL/min. After allowing 30 min to achieve a steady-state, outlet perfusate was collected every 15 min for 120 min. In addition, to assess the reliability of the perfusion study, 100 μg/mL fluorescein diluted in perfusion buffer was perfused separately under the same conditions and the collected samples were analyzed at excitation/emission wavelengths of 494/512 nm using a microplate reader (PerkinElmer multimode plate reader; PerkinElmer, Waltham, MA, USA) as a low-permeability marker. During the experiment, all animals were kept on heated pads under a heat lamp to maintain a normal body temperature. At the end of the experiment, the lengths and radii of the cannulated intestinal segments were measured, taking care to avoid stretching them. The collected samples were then filtered using 0.45-μm PVDF filters and stored at −20 °C before analyses. The outlet concentration of PMX in the perfusate was analyzed by HPLC as described above. In addition, the errors caused by rat intestinal water absorption and secretion during perfusion were corrected by the net water flux (ratio of the […] perfusate flows, Qout/Qin) and the corrected drug concentration in perfusate for each formulation was calculated based on the following equation (i.e. gravimetric method): Cout,corr = Cout × (Qout/Qin), where Cout,corr is the corrected outlet PMX concentration (µg/mL), Cout is the PMX outlet concentration (µg/mL), Qin (mL/min) is the flow rate entering the intestine, and Qout (mL/min) is the measured perfusate exit flow (net weight/15 min, assumed density of 1.0 g/mL) for the specified time interval. After correction, the Peff was calculated using the equation: Peff = Qin/A × ln(Cout,corr/Cin), where A is the intestinal area available for absorption (2πrl) based on its length (l) and radius (r).

Structures are written as SMILES.

Consider `O=C1OC2(c3ccc(O)cc3Oc3cc(O)ccc32)c2ccccc21` [fluorescein], for which the Papp at 120 min, 100 μg/mL came out at 0.1 ± 0.2 ×10⁻⁶ cm/s.
